Data: article PMC4965013, “Open Source Drug Discovery with the Malaria Box Compound Collection for Neglected Diseases and Beyond” (PLoS Pathogens, 2016)

Key:
[1] = target: cruzain (Trypanosoma cruzi, UniProt P25779); test: cruzain Z-FR-AMC cleavage; assay type: biochemical; settings: 500 nM
Procedure: (§1) Cysteine Protease Inhibitors Cruzain and Rhodesain, Ferreira group (data presented first in this paper). Recombinant cruzain was gently provided by Allison Doak and Dr. Brian Shoichet (University of California, San Francisco), while rhodesain was kindly provided by Dr. Conor Caffrey (Center for Discovery and Innovation in Parasitic Diseases, Skaggs School of Pharmacy and Pharmaceutical Sciences, University of California San Diego). Cruzain and rhodesain activity were measured as previously described, (Ferreira et al., 2010) by monitoring the cleavage of the fluorogenic substrate Z-Phe-Argaminomethylcoumarin (Z-FR-AMC) in a Synergy 2 (Biotek), from the Center of Flow Cytometry and Fluorimetry at the Biochemistry and Immunology Department (Universidade Federal de Minas Gerais, UFMG). Formation of fluorescent 4-amino-7-metyhlcoumarin was measured employing 340 nm wavelength for excitation and 440 nm for emission. […] Initially compounds were pre-incubated with the enzyme for 10 minutes in 100 µL assay buffer, then 100 µL of 5 μM substrate solution was added and the reaction was immediately monitored. Assays were performed in duplicate, followed for 5 min and activity was calculated based on initial velocities. […] Reported values refer to average and standard errors calculated based on duplicates. […] Data was analyzed with Prism 5.0 (GraphPad). […]

[2] = target: rhodesain (Trypanosoma brucei rhodesiense, UniProt Q95PM0); test: rhodesain Z-FR-AMC cleavage; assay type: biochemical; settings: 500 nM
Sequence of rhodesain (Q95PM0 entry or part of it): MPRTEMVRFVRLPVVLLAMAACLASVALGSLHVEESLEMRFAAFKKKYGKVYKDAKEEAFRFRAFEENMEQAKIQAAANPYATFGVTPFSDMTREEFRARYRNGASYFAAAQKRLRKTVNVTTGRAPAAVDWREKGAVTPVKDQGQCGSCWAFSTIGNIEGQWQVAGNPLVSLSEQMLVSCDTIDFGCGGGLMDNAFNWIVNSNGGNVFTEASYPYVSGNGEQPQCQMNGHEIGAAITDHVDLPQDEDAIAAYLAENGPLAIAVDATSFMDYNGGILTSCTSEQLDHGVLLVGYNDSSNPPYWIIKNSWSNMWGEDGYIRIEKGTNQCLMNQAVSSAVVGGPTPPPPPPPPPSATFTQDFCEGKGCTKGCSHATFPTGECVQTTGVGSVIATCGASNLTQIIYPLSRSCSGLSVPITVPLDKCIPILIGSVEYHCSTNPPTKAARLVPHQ
Procedure: as §1

[3] = tested on: P. falciparum HB3; test: Stage-specificity / mitochondrial integrity image assay Ayong; assay type: cell-based; settings: 10µM
[4] = target: Pf ProRS Prolyl-tRNA synthetase (Plasmodium falciparum, UniProt Q8I5R7); test: PfProRS Kinase-Glo aminoacylation; settings: control 1µM; compounds 10 µM
Sequence of Pf ProRS Prolyl-tRNA synthetase (Q8I5R7 8-746): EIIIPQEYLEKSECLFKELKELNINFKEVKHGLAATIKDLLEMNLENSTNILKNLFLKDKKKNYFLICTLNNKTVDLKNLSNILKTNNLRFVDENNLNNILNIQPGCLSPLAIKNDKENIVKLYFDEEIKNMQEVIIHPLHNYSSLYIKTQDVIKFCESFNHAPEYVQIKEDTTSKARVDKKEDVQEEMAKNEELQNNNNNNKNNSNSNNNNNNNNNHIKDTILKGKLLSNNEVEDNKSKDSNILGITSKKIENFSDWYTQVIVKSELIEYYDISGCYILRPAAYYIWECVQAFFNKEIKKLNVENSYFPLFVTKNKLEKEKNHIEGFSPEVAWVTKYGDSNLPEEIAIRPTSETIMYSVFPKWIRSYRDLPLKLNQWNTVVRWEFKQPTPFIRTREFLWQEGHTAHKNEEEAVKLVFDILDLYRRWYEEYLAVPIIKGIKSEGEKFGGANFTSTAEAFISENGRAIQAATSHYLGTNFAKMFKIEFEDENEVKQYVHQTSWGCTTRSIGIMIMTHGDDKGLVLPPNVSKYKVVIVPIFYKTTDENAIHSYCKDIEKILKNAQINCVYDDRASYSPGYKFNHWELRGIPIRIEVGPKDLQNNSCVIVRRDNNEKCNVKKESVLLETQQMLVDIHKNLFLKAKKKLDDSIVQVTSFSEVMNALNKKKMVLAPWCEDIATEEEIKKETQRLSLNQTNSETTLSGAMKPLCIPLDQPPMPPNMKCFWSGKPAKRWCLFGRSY

[5] = tested on: PK7; parameters: method as in ref [25] (a number printed in a supplementary file, which may have a reference list of its own: not looked up in the article's list); settings: control 100 µM; compounds 1 µM; ref [25]; cited from earlier work
[6] = tested on: PvEg5; parameters: method as in ref [29] (a number printed in a supplementary file, which may have a reference list of its own: not looked up in the article's list); settings: ref [29]; cited from earlier work
[7] = tested on: P. falciparum 3D7 trophozoites; test: Metabolomic fingerprint profiling LC-MS; assay type: cell-based, Plasmodium falciparum; parameters: UDP-D-glucose / ADP-D-glucose: unit not given here
[8] = tested on: PfEg5; parameters: method as in ref [29] (a number printed in a supplementary file, which may have a reference list of its own: not looked up in the article's list); settings: ref [29]; cited from earlier work
[9] = tested on: P. falciparum; test: EC50 listed in S2 Table Metabolomics (used to set the concentration tested); assay type: cell-based; settings: Plasmodium falciparum; EC50 used for Factor_XEC50 in metabolomics; read-out: EC50_nM
[10] = target: P. falciparum HDAC1 (Plasmodium falciparum, UniProt Q7K6A1); test: PfHDAC1 HDAC glo I/II; assay type: biochemical; settings: 50nM
Sequence of P. falciparum HDAC1 (Q7K6A1 entry or part of it): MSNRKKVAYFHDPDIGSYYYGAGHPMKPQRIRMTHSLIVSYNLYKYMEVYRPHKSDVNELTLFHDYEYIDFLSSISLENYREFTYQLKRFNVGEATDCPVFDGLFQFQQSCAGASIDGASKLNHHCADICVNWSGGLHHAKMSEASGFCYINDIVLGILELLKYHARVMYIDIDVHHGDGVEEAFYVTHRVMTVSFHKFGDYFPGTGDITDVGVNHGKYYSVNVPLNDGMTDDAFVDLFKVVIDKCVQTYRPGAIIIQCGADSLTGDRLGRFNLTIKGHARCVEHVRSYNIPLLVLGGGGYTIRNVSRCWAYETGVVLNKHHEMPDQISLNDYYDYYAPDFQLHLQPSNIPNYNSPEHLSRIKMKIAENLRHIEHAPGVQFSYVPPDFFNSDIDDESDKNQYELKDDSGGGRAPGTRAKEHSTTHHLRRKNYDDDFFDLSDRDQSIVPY

[11] = target: Pf KRS Lysyl-tRNA Synthetase (Plasmodium falciparum, UniProt Q8IDJ8); test: PfKRS Kinase-Glo aminoacylation; settings: control 1µM; compounds 10 µM
Sequence of Pf KRS Lysyl-tRNA Synthetase (Q8IDJ8 entry or part of it): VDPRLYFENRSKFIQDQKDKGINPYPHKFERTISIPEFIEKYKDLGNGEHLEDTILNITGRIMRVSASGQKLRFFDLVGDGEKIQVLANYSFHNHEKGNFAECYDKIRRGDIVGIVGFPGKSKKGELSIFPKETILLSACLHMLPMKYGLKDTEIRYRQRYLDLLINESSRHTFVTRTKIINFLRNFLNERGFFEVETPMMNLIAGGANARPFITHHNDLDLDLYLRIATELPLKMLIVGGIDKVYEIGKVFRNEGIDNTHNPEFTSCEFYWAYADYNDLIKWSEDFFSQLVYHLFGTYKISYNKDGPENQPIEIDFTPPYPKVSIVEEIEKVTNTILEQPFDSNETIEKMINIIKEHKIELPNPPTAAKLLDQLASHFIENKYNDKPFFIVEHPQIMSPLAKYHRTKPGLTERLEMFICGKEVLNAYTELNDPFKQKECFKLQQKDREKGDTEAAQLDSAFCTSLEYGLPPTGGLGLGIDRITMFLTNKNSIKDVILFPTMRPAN

[12] = tested on: PfCDPK4; settings: ref [25]; cited from earlier work
[13] = target: T1, dUTPase (Plasmodium falciparum, UniProt Q8II92); test: Bioaffinity Mass Spectrometry Screening, dUTPase; assay type: binding; settings: compound:protein ~5:1
T1 construct: […]; made in house
T1 sequence (Q8II92 whole entry, added parts left off): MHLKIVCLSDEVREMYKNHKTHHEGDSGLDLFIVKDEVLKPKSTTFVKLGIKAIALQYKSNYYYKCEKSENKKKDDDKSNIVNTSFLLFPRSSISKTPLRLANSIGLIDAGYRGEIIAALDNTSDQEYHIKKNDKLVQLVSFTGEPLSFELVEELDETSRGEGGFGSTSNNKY
Procedure: Bioaffinity Mass Spectrometry Screening Method
Recombinant proteins were prepared by the Van Voorhis group according to the same protocol as in [25]. Proteins were buffer-exchanged into a suitable volatile buffer (ammonium acetate or ammonium bicarbonate) for native ESI-MS. Depending on the protein, the buffer and its concentration is chosen to obtain the highest sensitivity in the mass spectrometer. We have chosen ammonium acetate buffer (10mM, pH 7) for these two proteins, dUTPase and 6-Phosphogluconolactonase.
High-resolution Fourier transform mass spectrometry (FTMS) can identify the molecular weight of the bound ligand. The difference between the mass-to-charge ratio (Δm/z) for the unbound protein and the [protein-bound ligand] complex ions was multiplied by the charge state (z) to directly afford the molecular weight of the bound ligand, using the following equation.
The BMSS assay was performed on 400 Malaria Box compounds against 25 Plasmodium falciparum proteins, which are critical in malaria cell growth and invasion. Pools of eight Malaria Box compounds (each compound 1 µL, 1 mM in methanol) were incubated with a P. falciparum protein one hour at room temperature. When a non-covalent complex was found, the molecular weight of the binding compound was deducted from the spectrum. On the basis of this information, a binding confirmation on the selected compound was performed. […]

[14] = tested on: MAPK2; parameters: method as in ref [25] (a number printed in a supplementary file, which may have a reference list of its own: not looked up in the article's list); settings: control 100 µM; compounds 1 µM; ref [25]; cited from earlier work
[15] = metabolite level change after treatment

Sequence of cruzain (P25779 123-337): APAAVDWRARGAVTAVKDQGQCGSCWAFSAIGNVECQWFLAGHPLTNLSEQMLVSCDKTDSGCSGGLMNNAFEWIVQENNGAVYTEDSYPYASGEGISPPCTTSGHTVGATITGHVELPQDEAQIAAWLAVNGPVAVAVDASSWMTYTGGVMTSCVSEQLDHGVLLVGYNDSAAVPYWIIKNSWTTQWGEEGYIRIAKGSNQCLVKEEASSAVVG

In the case of `CC(C)C[C@H](NC(=O)[C@H]1O[C@@H]1C(=O)O)C(=O)NCCCCN=C(N)N` (relative stereo) [E-64, trans-Epoxysuccinyl-L-leucylamido-(4-guanidino) butane], the cruzain % inhibition [1] is reported as “approximately 100%”, the rhodesain % inhibition [2] is reported as “approximately 100%” and the “Effects on asexual life cycle progression (treatment at ER, LR, T, S; merozoites; mitochondrial integrity)” value [3] is reported as “X-S-S-X-o-o”.

`O=C(CC1NCCCC1O)Cn1cnc2cc(Br)c(Cl)cc2c1=O` (centres unmarked) [halofuginone] showed a PfProRS % inhibition [4] of 100%.

For `CC(C)(C)n1nc(-c2cccc3ccccc23)c2c(N)ncnc21` [1NA-PP1], the PK7 % inhibition [5] is listed as > 80%.

For `COc1cccc(C=Cc2nc(=O)c3ccccc3o2)c1OC` [MMV666693], the “PvEg5 ATPase inhibition in words” value [6] is listed as “selective inhibitor”, the Acetyllysine ([7]; S2 Table Metabolomics, metabolite Acetyllysine) is listed as 0.1397 and the N-acetyl-L-ornithine ([7]; S2 Table Metabolomics, metabolite N-acetyl-L-ornithine) is listed as 0.2363. It also gave a N-carbamoyl-L-aspartate ([7]; S2 Table Metabolomics, metabolite N-carbamoyl-L-aspartate) of 3.172, an NADPH ([7]; S2 Table Metabolomics, metabolite NADPH) of 0.2825 and a dAMP ([7]; S2 Table Metabolomics, metabolite dAMP) of -0.08701. For the same compound, the dCMP ([7]; S2 Table Metabolomics, metabolite dCMP) was 0.2474, the dTDP ([7]; S2 Table Metabolomics, metabolite dTDP) was -0.7354 and the dTMP ([7]; S2 Table Metabolomics, metabolite dTMP) was -0.4318. It also gave a dTTP ([7]; S2 Table Metabolomics, metabolite dTTP) of -0.1932, a dihydroorotate ([7]; S2 Table Metabolomics, metabolite dihydroorotate) of 3.894 and an orotate ([7]; S2 Table Metabolomics, metabolite orotate) of -0.9184. It also gave a DLH ([7]; S2 Table Metabolomics, peptide DLH) of -0.06293, a DLS/SDL/SID ([7]; S2 Table Metabolomics, peptide DLS/SDL/SID) of -0.09731 and a PD ([7]; S2 Table Metabolomics, peptide PD) of 0.5949. It also gave a PEE ([7]; S2 Table Metabolomics, peptide PEE) of -0.05317, a PVNF ([7]; S2 Table Metabolomics, peptide PVNF) of -0.1239 and a 3-phosphoglycerate ([7]; metabolite 3-phosphoglycerate, S2 Table Metabolomics) of 0.2329. For the same compound, the ADP-D-glucose ([7]; metabolite ADP-D-glucose, S2 Table Metabolomics) was 0.3504, the ATP ([7]; metabolite ATP, S2 Table Metabolomics) was 0.6585 and the CDP ([7]; metabolite CDP, S2 Table Metabolomics, change in metabolite level after compound treatment) was -0.7718. It also gave a D-sedoheptulose-1/7-phosphate ([7]; metabolite D-sedoheptulose-1/7-phosphate, S2 Table Metabolomics, change in metabolite level after compound treatment) of 0.3935, an FAD ([7]; metabolite FAD, S2 Table Metabolomics) of 0.6886 and a GMP ([7]; metabolite GMP, S2 Table Metabolomics, change in metabolite level after compound treatment) of 2.325. The “NAD+” value ([7]; metabolite NAD+, S2 Table Metabolomics) was 0.3862, the “NADP+” value ([7]; metabolite NADP+, S2 Table Metabolomics) was 0.1667 and the “Octoluse Bisphosphate” value ([7]; metabolite Octoluse Bisphosphate, S2 Table Metabolomics, change in metabolite level after compound treatment) was 0.214. It also gave a Pyroglutamic acid ([7]; metabolite Pyroglutamic acid, S2 Table Metabolomics) of -0.09945, a UDP-D-glucose ([7]; metabolite UDP-D-glucose, S2 Table Metabolomics) of 0.3609 and a UDP-D-glucuronate ([7]; metabolite UDP-D-glucuronate, S2 Table Metabolomics) of 0.4012. The UDP-N-acetyl-glucosamine ([7]; metabolite UDP-N-acetyl-glucosamine, S2 Table Metabolomics) was 0.3198, the UDP ([7]; metabolite UDP, S2 Table Metabolomics, change in metabolite level after compound treatment) was -0.8743 and the UMP ([7]; metabolite UMP, S2 Table Metabolomics, change in metabolite level after compound treatment) was -0.7276. The UTP ([7]; metabolite UTP, S2 Table Metabolomics, change in metabolite level after compound treatment) was -0.635, the a-ketoglutarate ([7]; metabolite a-ketoglutarate, S2 Table Metabolomics) was -0.04301 and the citrate/isocitrate ([7]; metabolite citrate/isocitrate, S2 Table Metabolomics, change in metabolite level after compound treatment) was -0.1473. For the same compound, the cytidine ([7]; metabolite cytidine, S2 Table Metabolomics) was 0.3511, the dATP ([7]; metabolite dATP, S2 Table Metabolomics) was 0.7712 and the dGMP/AMP ([7]; metabolite dGMP/AMP, S2 Table Metabolomics, change in metabolite level after compound treatment) was -0.2164. It also gave a fumarate ([7]; metabolite fumarate, S2 Table Metabolomics, change in metabolite level after compound treatment) of 0.7025, a glucose-1/6-phosphate ([7]; metabolite glucose-1/6-phosphate, S2 Table Metabolomics, change in metabolite level after compound treatment) of 0.5191 and a glycerate ([7]; metabolite glycerate, S2 Table Metabolomics, change in metabolite level after compound treatment) of -0.06297. The guanine ([7]; metabolite guanine, S2 Table Metabolomics, change in metabolite level after compound treatment) was 0.6599, the guanosine ([7]; metabolite guanosine, S2 Table Metabolomics, change in metabolite level after compound treatment) was 0.8246 and the hypoxanthine ([7]; metabolite hypoxanthine, S2 Table Metabolomics) was 0.08871. For the same compound, the indole ([7]; metabolite indole, S2 Table Metabolomics) was 0.0369, the inosine ([7]; metabolite inosine, S2 Table Metabolomics, change in metabolite level after compound treatment) was 0.4625 and the 2_3-Diphosphoglyceric acid [7, 15] was 0.5942. The 4-phosphopantothenate [7, 15] was 0.0573, the 6-phospho-D-gluconate [7, 15] was 0.4861 and the FMN [7, 15] was 0.3054. For the same compound, the IMP [7, 15] was 0.1618, the Pyrophosphate [7, 15] was 0.3262 and the Sedoheptoluse bisphosphate [7, 15] was 0.378. For the same compound, the cyclic-AMP [7, 15] was 0.4484, the glutathione disulfide [7, 15] was 0.6375 and the lactate [7, 15] was 0.2118. The myo-inositol [7, 15] was 0.3466, the nicotinate ([7]; metabolite nicotinate, S2 Table Metabolomics) was 0.3154 and the ornithine ([7]; metabolite ornithine, S2 Table Metabolomics) was 0.1755. The phosphoenolpyruvate ([7]; metabolite phosphoenolpyruvate, S2 Table Metabolomics) was 0.1481, the pyruvate ([7]; metabolite pyruvate, S2 Table Metabolomics, change in metabolite level after compound treatment) was -0.005171 and the ribose-phosphate ([7]; metabolite ribose-phosphate, S2 Table Metabolomics) was 0.3602. The sarcosine/alanine ([7]; metabolite sarcosine/alanine, S2 Table Metabolomics, change in metabolite level after compound treatment) was 0.4257, the sn-glycerol-3-phosphate ([7]; metabolite sn-glycerol-3-phosphate, S2 Table Metabolomics) was 0.6187 and the succinate/methylmalonic acid ([7]; metabolite succinate/methylmalonic acid, S2 Table Metabolomics, change in metabolite level after compound treatment) was 0.3609. For the same compound, the uridine ([7]; metabolite uridine, S2 Table Metabolomics, change in metabolite level after compound treatment) was -0.1766, the xanthosine ([7]; metabolite xanthosine, S2 Table Metabolomics, change in metabolite level after compound treatment) was 0.5199 and the “PfEg5 ATPase inhibition in words” value [8] was “selective inhibitor”. The EC50 [9] was 23.8 nM.

In the case of `CC(/C=C/C(=O)NO)=C\[C@@H](C)C(=O)c1ccc(N(C)C)cc1` [trichostatin A], the PfHDAC1 % inhibition [10] is reported as 89.9 ± 0.5%.

In the case of `C[C@H]1CCC[C@H](C[C@H]2Cc3cc(O)cc(O)c3C(=O)O2)O1` [Cladosporin], the PfKRS % inhibition [11] is reported as 100%.

For `O=c1nc(C=Cc2ccc(Br)cc2)oc2ccccc12` [MMV666599], the IC50 [12] is listed as 700 nM and the “binding to dUTPase (confirmation)” value [13] is listed as “binding”.

In the case of `Nc1ncnc2c1ncn2[C@@H]1O[C@H](COP(=O)(O)OP(=O)(O)NP(=O)(O)O)[C@@H](O)[C@H]1O` [AMP-PNP], the MAPK2 % inhibition [14] is given as > 80%.
